One data set relates to osteoblast gene products. Kind of data set: Osteoblast gene expression profile assay (real-time PCR). Type of data set: cell-based. As for the experimental part:
Both GPC4 and TRIP have been used in the creation of an osteoblast gene expression profile assay. This assay utilizes cDNA primer pairs that can be used to amplify a number of osteoblast gene products with real-time PCR. In addition to GPC4 and TRIP the following are assayed; osteocalcin (a bone specific protein), alkaline phosphatase (an enzyme present in large amounts in osteoblasts, cbfa1 (a transcription factor that induces osteoblast differentiation), PTH receptor 1 (the receptor responsible for PTH action), PTH receptor 2 (a secondary receptor that may be responsible for PTHrP action).
The data are interpretted by analyzing an increase in PCR cycle number, i.e. the number of PCR cycles necessary to obtain product. The higher the cylce number the smaller amount of starting mRNA.
(In general: Quantitative PCR measures a nucleic acid by following its amplification.)

For data set [1], the target named is T1, type V tartrate resistant acid phosphatase (TRAP) (Sus scrofa, UniProt P09889).
T1 construct: One was from a purified protein extraction; from tissue; host or cells: gift of Dr. R. M. Roberts (University of Missouri)
T1 sequence (P09889 22-340): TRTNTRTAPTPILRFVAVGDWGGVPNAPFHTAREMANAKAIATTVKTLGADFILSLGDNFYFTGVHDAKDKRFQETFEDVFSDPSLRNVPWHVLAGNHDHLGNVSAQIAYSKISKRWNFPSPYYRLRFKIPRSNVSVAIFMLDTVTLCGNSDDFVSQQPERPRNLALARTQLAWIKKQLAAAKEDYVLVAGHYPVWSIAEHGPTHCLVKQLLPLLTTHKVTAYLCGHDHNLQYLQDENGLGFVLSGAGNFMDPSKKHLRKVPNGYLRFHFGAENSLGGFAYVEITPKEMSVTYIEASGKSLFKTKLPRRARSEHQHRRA
Kind of data set: Phage display bio-panning of random 12 amino acid M13 library with immobilized TRAP. Particulars: 44 phage clones sequenced after three rounds of bio-panning with TRAP. Type of data set: binding. An excerpt: In phage display either random peptide libraries or cell specific cDNA libraries can be used. Both have been used to target the interactions that take place in bone resporbtion and formation. Generally, the peptides or proteins are expressed on the surface coat of M13 or T7 phage and then these phage are used in a biopanning technique to identify which phage have affinity for a particular substrate (the “bait”). The adherent phage are eluted, amplified and used in another round of panning. After at least three rounds, phage clones are sequenced.
The TRAP used in these experiments was purified to homogeneity and was generously provided by Dr. M. Roberts.
After three rounds of bio-panning, elution and amplification 44 phage clones were selected at random and sequenced. Nine different sequences were identified. They are listed in Table 4 along with their consensus frequency. The most frequent phage sequenced was represented 15 times and the least frequent only a single time.

For data set [2], the system named is osteoblast binding to osteoclast lacunae. Kind of data set: Competition cell binding assay, osteoblasts on pitted bone wafers. Type of data set: cell-based, rat. As for the experimental part:
The 12 amino acid oligopeptide corresponding to the sequence from Clone 5 can inhibit osteoblast binding to osteoclast lacunae. […] (For these experiments, approximately 20% of the area of the wafers was pitted.) A concentration of 50 nM for the oligopeptide blocked osteoblast binding by approximately 66%. A statistically significant inhibition for binding occurred down to a concentration of 10 pM of the oligopeptide.
The 12 amino acid oligopeptide corresponding to the sequence from Clone 5 can inhibit osteoblast binding to osteoclast lacunae. […] For these experiments, approximately 20% of the area of the wafers was pitted. A concentration of 50 nM for the oligopeptide blocked osteoblast binding by approximately 66%. A statistically significant inhibition for binding occurred down to a concentration of 10 pM of the oligopeptide.
To measure the effect of selected phage peptides on osteoblast binding in osteoclast lacunae we performed a cell binding assay in the presence of increasing concentrations of the phage peptide. Osteoblasts were prelabeled with L-[4,5-^3H]Leucine (250 μCi TRK636-250 μCi, Amersham ) for 24 hrs. The osteoblasts were then added to pitted bone wafers in the presence of increasing concentrations of a synthetic 12 amino acid peptide that was identical to the phage sequence. After a two hour incubation at 37° C. the wafers were washed and the amount of radiolabel associated on each wafer determined by scintillation spectrometry. The specific activity of the cells (i.e. cpm/cell) was used to determine the number of cells adhering to the wafers.

The subject of the next data set is TRAP (GAL-4-BD-TRAP). The data set can be described thus: Mammalian two-hybrid assay TRAP / GPC4. The data set is classed as cell-based, human. Particulars: SaOS2 cells. The protocol: A mammalian two-hybrid assay was performed utilizing materials obtained from Clonetech (catalog #K1602-1). In this procedure we created two fusion proteins; a GAL4-BD-TRAP and a VP16-AD-GPC4. […] The TRAP sequence was obtained from Dr. James Bixley, University of Missouri, Columbia, Mo. GPC4 was obtained from a human osteoblast cDNA library from MG-63 cells.
GAL-4-BD-TRAP binds to the promoter of a luciferase reporter gene and the VP-16-AD-GPC4 activates RNA polymerase II activity. If the two target proteins interact with each other they will bring the binding domain protein into the vicinity of the activation domain and luciferase transcription will occur. The presence of luciferase activity in co-transfected cells is evidence for a physical association between the proteins.
In a control experiment, a second VP-16-AD protein was constructed using a GPC4 sequence deficient in the 12 amino acids identified from Clone 5 phage biopanning. This construct is termed VP-16-AD-GPC412. Deletion of the 12 amino acids from the GPC4 gene was accomplished with linker scanning mutagenesis
Pairs of plasmids were co-transfected into SaOS2 osteoblast-like cells using Lipofectamine®.

From patent US7241732B2, “Compositions and methods involved in bone growth” (University of Rochester, priority 2001, dated 2007) come the findings set out here.

TRAP (GAL-4-BD-TRAP), sequence (P13686 22-325): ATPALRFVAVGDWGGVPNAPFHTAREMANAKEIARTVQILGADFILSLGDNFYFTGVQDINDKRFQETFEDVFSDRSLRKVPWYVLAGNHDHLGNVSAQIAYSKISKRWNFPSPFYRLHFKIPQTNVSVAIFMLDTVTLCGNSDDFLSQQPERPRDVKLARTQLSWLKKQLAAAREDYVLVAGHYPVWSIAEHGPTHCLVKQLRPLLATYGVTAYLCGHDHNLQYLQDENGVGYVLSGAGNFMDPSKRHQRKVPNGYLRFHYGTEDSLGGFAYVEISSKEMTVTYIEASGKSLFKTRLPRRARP

With Lead, the “effect on osteoblast gene products (in words)” value in the data set with osteoblast gene products is “depresses all of the above gene products including GPC4 and TRIP”. In addition, in the data set on osteoblast gene products (control 21), the “Lead PCR cycle number, TRIP” value amounted to 26. Besides, in the data set with osteoblast gene products (control 23), the “Lead PCR cycle number, alkaline phosphatase” value is given as 27 and the “Lead PCR cycle number, osteocalcin” value came out at 26. In the data set on osteoblast gene products (control 24), the “Lead PCR cycle number, cbfa1” value was determined as 28. The “Lead PCR cycle number, PTH receptor 1” value in the data set with osteoblast gene products (control 28) was determined as 33. Further, the “Lead PCR cycle number, PTH receptor 2” value in the data set on osteoblast gene products (control 31) came out at 32. In addition, the “Lead PCR cycle number, GPC4” value in the data set on osteoblast gene products (higher cycle number = smaller amount of starting mRNA, control 19) came to 24.
As to “SEQ. ID No. 2: phage clone insert DNA from TRAP bio-panning, encodes peptide SEQ. ID No. 20 (DNA ACTATGGGTTTTACGGCTCCGCGGTTTCCGCATTAT; expressed or natural sequence)”, the “Fre (consensus frequency among sequenced phage clones)” value in data set [1] is reported as 6/44.
Same read-out and setting: next, “SEQ. ID No. 3: phage clone insert DNA from TRAP bio-panning, encodes peptide SEQ. ID No. 21 (DNA TCTCAGTGGCATCCGCGGTCTGCGTCGTATCCGATG; expressed or natural sequence)”: 4/44; “SEQ. ID No. 4: phage clone insert DNA from TRAP bio-panning, encodes peptide SEQ. ID No. 22 (DNA ACGCCGTCTCTTCCTCCGACTATGTTTCGGTTGACT; expressed or natural sequence)”: 4/44; “SEQ. ID No. 6: phage clone insert DNA from TRAP bio-panning, encodes peptide SEQ. ID No. 24 (DNA CGGCCACGGAACACCAGTAGACGTCCCATGCGCAGA; expressed or natural sequence)”: 2/44.
Turning to “SEQ. ID No. 7: phage clone insert DNA from TRAP bio-panning, encodes peptide SEQ. ID No. 25 (DNA ATAATGCGGAAACCGCGGAGCCGTAAAACCCATAGT; expressed or natural sequence)”, in data set [1], the “Fre (consensus frequency among sequenced phage clones)” value is reported as 5/44.
The same measure, in the same setting: next, “SEQ. ID No. 8: phage clone insert DNA from TRAP bio-panning, encodes peptide SEQ. ID No. 26 (DNA CGGCCAACGGAACACCAGTAGACGTCCCATGCGCAG; expressed or natural sequence)”: 2/44.
Same read-out and setting: next, “SEQ. ID No. 9: phage clone insert DNA from TRAP bio-panning, encodes peptide SEQ. ID No. 27 (DNA ACCAAGCCCCGAATCACGCGAATAAAGCGGCCAAGA; expressed or natural sequence)”: 2/44.
Consider TPLSYLKGLVTV [Clone 5 peptide], for which the blocked osteoblast binding result in data set [2] (50 nM oligopeptide, about 20% of wafer area pitted) is “approximately 66%”. In addition, the “interference with osteoblast binding to osteoclast lacunae (in words)” value in data set [2] (FIG. 13) was “interfere with this osteoblast binding in a dose dependent fashion”. The “lowest concentration with statistically significant inhibition of osteoblast binding” value in data set [2] (pitted bone wafers) was found to be 10 pM.

B1: VP-16-AD-GPC4: glypican 4 (GPC4) expressed as fusion protein with VP-16 activation domain (protein)
chain: ALLAAELKSKSCSEVRRLYVSKGFNKNDAPLHEINGDHLKICPQGSTCCSQEMEEKYSLQSKDDFKSVVSEQCNHLQAVFASRYKKFDEFFKELLENAEKSLNDMFVKTYGHLYMQNSELFKDLFVELKRYYVVGNVNLEEMLNDFWARLLERMFRLVNSQYHFTDEYLECVSKYTEQLKPFGDVPRKLKLQVTRAFVAARTFAQGLAVAGDVVSKVSVVNPTAQCTHALLKMIYCSHCRGLVTVKPCYNYCSNIMRGCLANQGDLDFEWNNFIDAMLMVAERLEGPFNIESVMDPIDVKISDAIMNMQDNSVQVSQKVFQGCGPPKPLPAGRISRSISESAFSARFRPHHPEERPTTAAGTSLDRLVTDVKEKLKQAKKFWSSLPSNVCNDERMAAGNGNEDDCWNGKGKSRYLFAVTGNGLANQGNNPEVQVDTSKPDILILRQIMALRVMTSKMKNAYNGNDVDFFDISDESSGEGSGSGCEYQQCPSEFDYNATDHAGKSANEKADS
modifications: left off: large carriers
For the molecule B1, in the data set with TRAP (GAL-4-BD-TRAP), the “increase in luciferase activity on co-transfection with GAL-4-BD-TRAP” value is recorded as 10-20 fold.

B2: VP-16-AD-GPC412: VP-16-AD fusion of GPC4 deficient in the 12 amino acids identified from Clone 5 (protein)
chain: ALLAAELKSKSCSEVRRLYVSKGFNKNDAPLHEINGDHLKICPQGSTCCSQEMEEKYSLQSKDDFKSVVSEQCNHLQAVFASRYKKFDEFFKELLENAEKSLNDMFVKTYGHLYMQNSELFKDLFVELKRYYVVGNVNLEEMLNDFWARLLERMFRLVNSQYHFTDEYLECVSKYTEQLKPFGDVPRKLKLQVTRAFVAARTFAQGLAVAGDVVSKVSVVNPTAQCTHALLKMKPCYNYCSNIMRGCLANQGDLDFEWNNFIDAMLMVAERLEGPFNIESVMDPIDVKISDAIMNMQDNSVQVSQKVFQGCGPPKPLPAGRISRSISESAFSARFRPHHPEERPTTAAGTSLDRLVTDVKEKLKQAKKFWSSLPSNVCNDERMAAGNGNEDDCWNGKGKSRYLFAVTGNGLANQGNNPEVQVDTSKPDILILRQIMALRVMTSKMKNAYNGNDVDFFDISDESSGEGSGSGCEYQQCPSEFDYNATDHAGKSANEKADSAGVRPGAQAYLLTVFCILFLVMQREWR
modifications: left off: large carriers
In the case of B2, the “increase in luciferase activity on co-transfection with GAL-4-BD-TRAP” value in the data set with TRAP (GAL-4-BD-TRAP) is “showed no difference from control levels”.
